Earlier results in patent US8440655B2, “Combination therapy for the treatment of diabetes” (Theracos, Inc., priority 2010, dated 2013).

Assays:
[1] = tested on: cardiac receptors; details: (+) form compared to (−) form
[2] = tested on: cortical receptors; details: (+) form compared to (−) isomer
[3] = tested on: muscarinic receptor; details: result in words
[4] = at 90 degrees

Cc1scc2c1N(C(=O)CN1CCN(C)CC1)c1ccccc1NC2=O [(+) form of telenzepine]
factor by which the (+) form is more potent than the (−) form [1]: 50 | factor by which the (+) form is more effective than the (−) isomer [2]: 400 | antimuscarinic activity [3]: potent antimuscarinic activity

Cc1scc2c1N(C(=O)CN1CCN(C)CC1)c1ccccc1NC2=O [(−) form]
antimuscarinic activity [3]: considerably less active

Cc1scc2c1N(C(=O)CN1CCN(C)CC1)c1ccccc1NC2=O [Telenzepine, 4,9-Dihydro-3-methyl-4-[(4-methyl-1-piperazinyl)acetyl]-10H-thieno[3,4-b][1,5]benzodiazepin-10-one]
half time of interconversion of the two forms [4]: approximately 200 hours
